The nature of series [1]: MTT cytotoxicity assay on L929 fibroblasts. The series is classed as cell-based, murine. The conditions noted are these: mouse, L929 (NCTC clone 929) fibroblast cells, compounds 100-0.78 μM, GA 10-0.078 μM, 2 independent experiments. The protocol:
(§1) The NCTC clone 929 (L-929) murine fibroblast isolated from subcutaneous connective tissue (ATCC-CCL-1) were cultured in Dulbecco’s Modified Eagle Medium (DMEM) supplemented with 10 mM Hepes (pH 6.98–7.30), 1 mM l-glutamine, 100 U/ml of penicillin/streptomycin (BioWhittaker, Lonza, EuroClone SpA), and heat-inactivated 10% FBS. All cells were cultured at 37°C in a 5% CO2 humidified incubator.
(§2) The MTT method was employed as previously described to determine the viability of fibroblast cell lines. Briefly, cells seeded into 96-well plates at a density of 20,000 cells/well after overnight incubation, were exposed to selected compounds at the indicated concentrations for 24–72 h. Next they were gently washed, incubated with MTT (bromuro di 3-(4,5-dimetiltiazol-2-il)-2,5-diphenyltetrazolium) for 4 h, and processed for color detection with DMSO. The resulting purple solution was spectrophotometrically measured at 570 nm using a Varioskan Lux instrument and Skanit software (Thermo Fisher Scientific).
(§3) The optical density values for both assays were expressed as a percentage of cell survival and normalized with the value of cells treated with vehicle (DMSO), and the data were analyzed using GraphPad Prism v9.5.1 software (San Diego, CA, USA).
(§4) The cytotoxicity of the hit compounds was assessed in two independent experiments on murine L929 and human BJ fibroblasts at 24 h by MTT assays. Vehicle (DMSO) and Gambogic acid (GA) were used as negative and positive control respectively. The compounds show a safe profile on both cell lines (S2 Table).
(§5) The IC50(μM) shown was calculated by dose-response curves of the compounds on murine L929 and human BJ fibroblast cells. […] The data are representative of 2 independent experiments. Gambogic acid (GA) and vehicle (DMSO) were used as positive and negative controls respectively. (DOCX)
In general terms: Formazan colour is commonly taken as a measure of viable cells.

Series [2] in a line: MTT cytotoxicity assay on BJ fibroblasts. Particulars: human, BJ fibroblast cells, compounds 100-0.78 μM, GA 10-0.078 μM, 2 independent experiments. The series is classed as cell-based. The protocol:
as §1, §2, §3, §4, §5

Series [3] has as its system histone proteins of S. mansoni adult worm pairs. The series is described as follows: Western blot, histone acetylation (anti-acetylated lysine) in adult worm pairs. The series is classed as cell-based, Schistosoma mansoni. Particulars: 48 h and 72 h, partially lethal and sub-lethal doses. The method, then:
Ten adult pairs were treated with selected HDAC inhibitors for 48 h or 72 h at partially lethal and sublethal concentrations. Compound concentrations were selected based on the viability curve, Trichostatin A (TSA), a pan-HDAC inhibitor, and NF2503 a SmHDAC8 inhibitor chemically characterized by the presence of a hydroxamate-based MBG (metal binding group) coupled to a tricyclic thieno[3,2-b]indole core as capping group, previously described were used as positive controls in the experiments; DMSO (vehicle) was the negative control. Parasites were processed as previously described and samples were analyzed by 15% SDS-PAGE, and immunoblotting was performed using α-tubulin DM1A (1:5000), α-acetylated-lysine (1:4000) and α-acetylated tubulin (1:3000) antibodies. A Chemidoc XRS Bio-Rad with a chemiluminescent camera and Bio-Rad ImageLab 4.0 software were used for the acquisition and analysis of images. Each Western blot analysis was calibrated by Ponceau staining.
TSA, a known pan- class I and class II HDAC -inhibitor, and NF2503, a HDAC inhibitor previously shown to impact histone acetylation in adult worm pairs were used as positive controls.
Fig 6 Effects of selected compounds on histones and tubulin acetylation. […]

Series [4] has as its system Caco-2 cell. On the set-up: method as in earlier work. The conditions noted are these: QikProp; >500 great; ref [25]; cited from earlier work.
For series [5], the target named is T1, SmHDAC8 (Schistosoma mansoni, UniProt A5H660).
T1 construct: made in house; host or cells: E. coli
T1 sequence (A5H660 1-440): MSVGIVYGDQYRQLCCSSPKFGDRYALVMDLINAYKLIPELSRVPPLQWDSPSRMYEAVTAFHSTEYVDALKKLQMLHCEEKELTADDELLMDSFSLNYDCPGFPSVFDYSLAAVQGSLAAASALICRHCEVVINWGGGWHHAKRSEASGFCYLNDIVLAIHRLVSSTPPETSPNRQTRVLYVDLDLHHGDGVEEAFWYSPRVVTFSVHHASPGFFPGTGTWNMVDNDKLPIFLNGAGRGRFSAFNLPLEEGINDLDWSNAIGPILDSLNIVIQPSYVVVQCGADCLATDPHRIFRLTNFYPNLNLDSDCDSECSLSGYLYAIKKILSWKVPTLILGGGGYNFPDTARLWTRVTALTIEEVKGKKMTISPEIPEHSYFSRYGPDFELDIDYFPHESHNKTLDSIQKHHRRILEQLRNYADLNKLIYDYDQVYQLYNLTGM
The series is described as follows: Recombinant SmHDAC8 inhibition assay (Fluor de Lys). Type of series: biochemical. Particulars: Fluor-de-Lys substrate 50 μM, inhibitor 25-0.04 μM, average of three experiments ± SD. The protocol: SmHDAC8 protein was produced and purified by a method previously described by us. Inhibition assays of SmHDAC8 were performed as already described in previous publications. Briefly, the commercial Fluor de Lys kit (BML-KI178) of Enzo Life Science was used for testing the residual activity of the recombinant enzyme upon preincubation with each of the selected compounds. First the enzyme was preincubated with the selected compounds 15 min before substrate addition to the mixture. The Fluor de Lys substrate was used at 50 μM. Then, compounds, substrate, and enzyme were incubated together, and the reaction was allowed to proceed for 1 h at 30°C; subsequently, 2 μM TSA within 50 μL of 1× Developer II was added, and the mixture was further incubated for 1 h at 30°C to quench the reaction. Fluorescence was measured in a plate reader (Varioskan Lux, Thermo Fisher Scientific) with excitation at λ = 370 nm and emission at λ = 450 nm.

We go through two compounds from article PMC10927086, “Effects of structurally distinct human HDAC6 and HDAC6/HDAC8 inhibitors against S. mansoni larval and adult worm stages” (PLOS Neglected Tropical Diseases, 2024).

The IC50 is the concentration needed to halve the response being measured. Take `CCN(CC)Cc1ccc(Cn2c(=O)c(OCc3ccc(C(=O)NO)cc3)c(-c3cccnc3)c3ccccc32)cc1` [NF2838]: the 50% inhibitory concentration (IC50) at 24 h in series [1] is 64 to 100 µM; in series [2], greater than 100 µM. The “histone acetylation vs vehicle (DMSO)” value in series [3] is recorded as “more strongly impact histone acetylation”. In addition, the “QPPCaco predicted apparent Caco-2 cell permeability” value in series [4] is 56.07 nm/s. In addition, the IC50 in series [5] amounted to 0.4 ± 0.03 µM.

As to `Cn1c(=O)c(OCc2ccc(C(=O)NO)cc2)c(C2CCCCC2)c2ccccc21` [NF2836], the IC50 at 24 h in series [1] and in series [2] was greater than 100 µM in each case. Moreover, the “histone acetylation vs vehicle (DMSO)” value in series [3] was “only slightly impacts histone acetylation”. Besides, in series [4], the “QPPCaco predicted apparent Caco-2 cell permeability” value is 264.54 nm/s. Further, in series [5], the IC50 was found to be 2.3 ± 0.8 µM.
